Measurements reported in article PMC8007111, “Novel Potent Muscarinic Receptor Antagonists: Investigation on the Nature of Lipophilic Substituents in the 5- and/or 6-Positions of the 1,4-Dioxane Nucleus” (Journal of Medicinal Chemistry, 2020).

Legend:
[1] = target: T1, hM1 mAChR (Homo sapiens, UniProt P11229); assay: [3H]NMS inhibition radioligand binding, hM1 in CHO-K1 cell membranes; details: for ER (eudismic ratio) hM1: eutomer vs distomer
T1 construct: expressed in transfected cells; host or cells: CHO-K1 (membrane preparation)
T1 sequence (P11229 1-460): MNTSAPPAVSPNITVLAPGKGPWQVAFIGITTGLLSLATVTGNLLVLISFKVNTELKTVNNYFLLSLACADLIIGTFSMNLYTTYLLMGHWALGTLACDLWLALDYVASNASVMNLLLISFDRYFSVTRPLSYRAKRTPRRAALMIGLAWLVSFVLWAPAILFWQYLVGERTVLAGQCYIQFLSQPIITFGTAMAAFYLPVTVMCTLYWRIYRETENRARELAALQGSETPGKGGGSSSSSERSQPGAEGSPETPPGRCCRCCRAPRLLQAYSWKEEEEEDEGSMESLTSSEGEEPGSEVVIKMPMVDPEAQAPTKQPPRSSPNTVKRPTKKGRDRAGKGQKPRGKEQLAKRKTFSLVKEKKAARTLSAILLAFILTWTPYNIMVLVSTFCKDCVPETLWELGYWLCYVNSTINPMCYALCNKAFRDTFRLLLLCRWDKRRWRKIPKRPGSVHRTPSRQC

[2] = target: T2, hM5 mAChR (Homo sapiens, UniProt P08912); assay: [3H]NMS inhibition radioligand binding, hM5 in CHO-K1 cell membranes
T2 construct: expressed in transfected cells; host or cells: CHO-K1 (membrane preparation)
T2 sequence (P08912 1-532): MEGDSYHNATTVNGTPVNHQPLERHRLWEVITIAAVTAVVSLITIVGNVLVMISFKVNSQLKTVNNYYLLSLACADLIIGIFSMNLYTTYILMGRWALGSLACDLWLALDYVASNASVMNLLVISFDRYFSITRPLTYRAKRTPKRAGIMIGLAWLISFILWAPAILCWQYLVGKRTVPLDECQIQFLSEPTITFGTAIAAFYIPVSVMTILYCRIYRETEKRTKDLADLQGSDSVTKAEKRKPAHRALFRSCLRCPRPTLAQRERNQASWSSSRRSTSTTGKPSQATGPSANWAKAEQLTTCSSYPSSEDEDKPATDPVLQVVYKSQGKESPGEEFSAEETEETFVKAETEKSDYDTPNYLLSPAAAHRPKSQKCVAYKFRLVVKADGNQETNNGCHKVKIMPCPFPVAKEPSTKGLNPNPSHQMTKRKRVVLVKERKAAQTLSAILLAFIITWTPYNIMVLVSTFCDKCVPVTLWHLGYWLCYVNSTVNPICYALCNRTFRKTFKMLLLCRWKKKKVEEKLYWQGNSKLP

[3] = target: T3, hM3 mAChR (Homo sapiens, UniProt P20309); assay: [3H]NMS inhibition radioligand binding, hM3 in CHO-K1 cell membranes; details: for ER (eudismic ratio) hM3: eutomer vs distomer
T3 construct: expressed in transfected cells; host or cells: CHO-K1 (membrane preparation)

[4] = target: T4, hM2 mAChR (Homo sapiens, UniProt P08172); assay: [3H]NMS inhibition radioligand binding, hM2 in CHO-K1 cell membranes; details: for ER (eudismic ratio) hM2: eutomer vs distomer
T4 construct: expressed in transfected cells; host or cells: CHO-K1 (membrane preparation)
T4 sequence (P08172 1-466): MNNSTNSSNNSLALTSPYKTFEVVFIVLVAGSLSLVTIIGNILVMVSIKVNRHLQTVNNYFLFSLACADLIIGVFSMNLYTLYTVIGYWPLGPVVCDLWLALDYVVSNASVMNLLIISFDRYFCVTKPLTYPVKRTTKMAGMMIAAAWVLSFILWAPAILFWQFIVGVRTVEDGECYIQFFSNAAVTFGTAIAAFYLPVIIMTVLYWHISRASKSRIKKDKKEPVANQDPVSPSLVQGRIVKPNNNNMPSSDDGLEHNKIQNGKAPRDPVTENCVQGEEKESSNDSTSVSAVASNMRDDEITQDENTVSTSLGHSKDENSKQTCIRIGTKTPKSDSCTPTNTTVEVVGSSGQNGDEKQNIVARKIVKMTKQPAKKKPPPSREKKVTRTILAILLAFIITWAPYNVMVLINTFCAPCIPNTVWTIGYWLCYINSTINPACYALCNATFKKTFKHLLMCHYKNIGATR

[5] = target: T5, hM4 mAChR (Homo sapiens, UniProt P08173); assay: [3H]NMS inhibition radioligand binding, hM4 in CHO-K1 cell membranes; details: for ER (eudismic ratio) hM4: eutomer vs distomer
T5 construct: expressed in transfected cells; host or cells: CHO-K1 (membrane preparation)
T5 sequence (P08173 1-479): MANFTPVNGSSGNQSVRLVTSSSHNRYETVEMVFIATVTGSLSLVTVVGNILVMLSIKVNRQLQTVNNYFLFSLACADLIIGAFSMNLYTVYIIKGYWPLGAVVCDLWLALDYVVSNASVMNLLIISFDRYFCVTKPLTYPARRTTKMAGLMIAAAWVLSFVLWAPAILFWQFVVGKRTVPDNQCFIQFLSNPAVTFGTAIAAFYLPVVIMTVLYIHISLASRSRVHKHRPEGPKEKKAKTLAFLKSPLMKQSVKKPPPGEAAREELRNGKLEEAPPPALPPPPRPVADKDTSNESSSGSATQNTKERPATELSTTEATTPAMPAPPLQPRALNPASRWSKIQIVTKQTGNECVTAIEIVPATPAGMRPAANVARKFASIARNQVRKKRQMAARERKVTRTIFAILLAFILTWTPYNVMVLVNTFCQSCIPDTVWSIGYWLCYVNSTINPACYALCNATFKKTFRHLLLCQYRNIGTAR

[6] = system: urinary bladder; design: method as in PMID 22243489; details: anesthetized rats; compared to oxybutynin; cited from earlier work
[7] = system: MSCs from mouse bone marrow; assay: Carbachol-induced MSC viability (MTS assay); type: cell-based
Protocol: It is well established that bone marrow MSC behavior is influenced by a variety of signaling systems. In context, cholinergic intramural stimuli and, in particular, muscarinic signals orchestrate MSCs viability and commitment.[11],[12] Considering also the pluripotent MSC nature and their contribution to bone, blood, and systemic homeostasis,[53] viability studies on MSCs were performed to determine the functional profile of 3b, the most interesting compound in this series. […] Successively, the efficacy of 3b in contrasting cell viability induced by the well-known mAChR agonist carbachol was evaluated. […] Further research on the intracellular mechanistic outcomes of 3b on MSCs remains mandatory.
The in vitro studies were performed by using bone marrow MSCs as a model. Male BALB/c mice (Harlan Italy SrL, Milano, Italy) (8 weeks old; body weight ∼24.5 g; n = 4) were kept in a laminar-flow cage in a standardized environmental condition. Food (Harlan, Italy), and water was supplied ad libitum. Mice were sacrificed by CO2 narcosis and cervical dislocation in accordance with the recommendations of the Italian Ethical Committee and under the supervision of authorized investigators. Long bones (femurs and tibiae) were dissected and cleaned from skin, muscle, and connective tissues as much as possible. Bones were placed in a culture dish containing sterile PBS. Then, the bone cavity was flushed in DMEM with a syringe in order to collect the bone marrow cells into a 50 mL sterile tube. […] After 2 weeks of initiating culture, cells were washed with PBS, detached by trypsinization, counted, and plated at the density of 5,000 cells/well in 96 culture plates (Costar Corp., Milano, Italy) in DMEM containing 10% HIFCS, penicillin, and streptomycin.
MSCs were treated with compound 3b (from 10^–4 to 10^–10 M) for 24 h. […] At the end of each procedure, the MSCs viability was measured by MTS assay. […] The quantity of the formazan product was directly proportional to the number of living cells in culture. The colored formazan was measured by reading the absorbance at 490 nm using a […] plate reader.

[8] = [3H]NMS, CHO-K1 cell membranes, mean ± S.E.M.

T3 sequence (P20309 whole entry): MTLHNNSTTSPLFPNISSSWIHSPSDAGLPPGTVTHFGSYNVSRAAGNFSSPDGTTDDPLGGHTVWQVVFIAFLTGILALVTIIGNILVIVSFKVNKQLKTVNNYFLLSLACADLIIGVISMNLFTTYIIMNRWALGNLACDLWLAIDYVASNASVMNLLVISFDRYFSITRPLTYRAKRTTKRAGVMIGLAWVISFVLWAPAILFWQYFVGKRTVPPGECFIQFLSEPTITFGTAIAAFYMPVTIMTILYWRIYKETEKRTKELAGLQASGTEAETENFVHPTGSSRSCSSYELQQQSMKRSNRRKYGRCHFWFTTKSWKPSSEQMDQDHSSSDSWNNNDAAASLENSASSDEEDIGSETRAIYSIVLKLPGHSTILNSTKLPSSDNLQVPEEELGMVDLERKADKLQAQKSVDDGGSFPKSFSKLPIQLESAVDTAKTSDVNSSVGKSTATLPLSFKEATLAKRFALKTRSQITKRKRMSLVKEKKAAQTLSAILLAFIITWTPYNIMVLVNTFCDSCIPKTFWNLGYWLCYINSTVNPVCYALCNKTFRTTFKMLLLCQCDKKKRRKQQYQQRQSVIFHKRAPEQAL

SMILES: C[N+](C)(C)C[C@@H]1COC[C@@](c2ccccc2)(C2CCCCC2)O1.[I-] (relative stereo) [3a, 1-((2R*,6S*)-6-Cyclohexyl-6-phenyl-1,4-dioxan-2-yl)-N,N,N-trimethylmethanaminium Iodide]
- pKi hM1 [1, 8]: 8.03 ± 0.09
- pKi hM5 [2, 8]: 7.26 ± 0.05
- pKi hM3 [3, 8]: 7.84 ± 0.13
- pKi hM2 [4, 8]: 7.36 ± 0.12
- melting point: 270 to 271 °C
- pKi hM4 [5, 8]: 7.51 ± 0.08

SMILES: C[N+](C)(C)C[C@@H]1COC[C@](c2ccccc2)(C2CCCCC2)O1 [(2R,6R)-(+)-3b, 1-((2R,6R)-6-Cyclohexyl-6-phenyl-1,4-dioxan-2-yl)-N,N,N-trimethylmethanaminium Iodide]
- pKi hM1 [1, 8]: 8.30 ± 0.25
- pKi hM5 [2, 8]: 7.68 ± 0.35
- pKi hM3 [3, 8]: 7.51 ± 0.12
- pKi hM2 [4, 8]: 7.86 ± 0.14
- pKi hM4 [5, 8]: 7.45 ± 0.11

SMILES: CN(C)C[C@@H]1COC[C@](c2ccccc2)(C2CCCCC2)O1 [(2R,6R)-(+)-33b]
- pKi hM1 [1, 8]: 7.68 ± 0.16
- pKi hM5 [2, 8]: 7.16 ± 0.27
- pKi hM3 [3, 8]: 6.73 ± 0.06
- pKi hM2 [4, 8]: 7.17 ± 0.11
- pKi hM4 [5, 8]: 7.01 ± 0.08

SMILES: C[N+](C)(C)C[C@H]1COC[C@@](c2ccccc2)(C2CCCCC2)O1.[I-] [(2S,6S)-(−)-3b, 1-((2S,6S)-6-Cyclohexyl-6-phenyl-1,4-dioxan-2-yl)-N,N,N-trimethylmethanaminium Iodide]
- pKi hM1 [1, 8]: 9.52 ± 0.19
- ER (eudismic ratio) hM1 [1]: 17
- pKi hM5 [2, 8]: 9.18 ± 0.18
- pKi hM3 [3, 8]: 9.05 ± 0.10
- ER (eudismic ratio) hM3 [3]: 35
- pKi hM2 [4, 8]: 8.22 ± 0.10
- ER (eudismic ratio) hM2 [4]: 2
- pKi hM4 [5, 8]: 9.17 ± 0.19
- ER (eudismic ratio) hM4 [5]: 52

SMILES: CN(C)C[C@H]1COC[C@@](c2ccccc2)(C2CCCCC2)O1 [(2S,6S)-(−)-33b]
- pKi hM1 [1, 8]: 9.10 ± 0.28
- ER (eudismic ratio) hM1 [1]: 26
- pKi hM5 [2, 8]: 8.83 ± 0.10
- ER (eudismic ratio) hM5 ([2]; eutomer vs distomer): 47
- pKi hM3 [3, 8]: 9.02 ± 0.10
- ER (eudismic ratio) hM3 [3]: 195
- pKi hM2 [4, 8]: 8.10 ± 0.10
- ER (eudismic ratio) hM2 [4]: 9
- pKi hM4 [5, 8]: 9.09 ± 0.15
- ER (eudismic ratio) hM4 [5]: 120

SMILES: C[N+](C)(C)C[C@H]1COCC(c2ccccc2)(c2ccccc2)O1 [(S)-(−)-2]
- reduction of volume-induced contractions of the urinary bladder [6]: more efficaciously reduced the volume-induced contractions of the urinary bladder

SMILES: CN1[C@@H]2CC[C@H]1C[C@@H](OC(=O)C(CO)c1ccccc1)C2 (stereo partly shown) [atropine]
- effect on carbachol-induced MSC viability ([7]; pre-incubation 1 h, then carbachol 10^–10 M for 24 h): able to contrast the increase of carbachol-induced MSC viability

SMILES: C[N+](C)(C)CCOC(N)=O [carbachol]
- effect of agonist on MSC viability ([7]; carbachol 10^–10 M, 24 h): increase of carbachol-induced MSC viability

SMILES: C[N+](C)(C)CC1COC(c2ccccc2)(c2ccccc2)CO1 (stereo not shown) [compound 10, 1-(5,5-Diphenyl-1,4-dioxan-2-yl)-N,N,N-trimethylmethanaminium Iodide]
- Ki ([1]; [3H]NMS, CHO-K1 cell membranes, mean ± S.E.M., read-out: pKi hM1 (converted)): 36.3 nM
- Ki ([2]; [3H]NMS, CHO-K1 cell membranes, mean ± S.E.M., read-out: pKi hM5 (converted)): 158 nM
- Ki ([3]; [3H]NMS, CHO-K1 cell membranes, mean ± S.E.M., read-out: pKi hM3 (converted)): 135 nM
- Ki ([4]; [3H]NMS, CHO-K1 cell membranes, mean ± S.E.M., read-out: pKi hM2 (converted)): 178 nM
- Ki ([5]; [3H]NMS, CHO-K1 cell membranes, mean ± S.E.M., read-out: pKi hM4 (converted)): 155 nM
